Results as given in patent US20080057010A1, “METHOD FOR SKIN CARE” (NULIV SCIENCE LTD., priority 2006, published 2008).

Key:
HaCaT cells = test: Glucosamine uptake assay in HaCaT cells; format: cell-based, human; details: 0.1 μM
Procedure: In glucosamine uptake test, HaCaT cells were seeded into 24-well plate at a density of 3×10^4 cells/well and cultured for 24 h. The cells were then treated in the absence (solvent control) or presence of various concentrations of astragalosides for another 48 h. The treated cells were then washed twice with PBS and incubated in glucose and serum free medium (GSFM). After 2 h, the cells were replaced with fresh GSFM containing 0.2 μCi of [^14C]-Glucosamine (American Radiolabelled Chemicals Inc, ARC, St. Louis, Mo., USA). At the designated time interval, the cells were washed twice with GSFM containing cold glucosamine and then lysed in 200 μL 2% SDS. Cell lysates were centrifuged at 15000 g for 15 min. Intracellular uptaken glucosamine was determined by transferring 10 μL of the cell lysate to filter-bottemed UniFilter plates (Perkim-Elmer) and counted. Protein concentration of the samples was measured using the BCA protein assay kit as described above. Glucosamine accumulated in the cells was calculated and normalized to protein concentration and uptake rate was expressed as counts per minute per microgram of cell protein (cpm/min/μg).

collagen I [1] = test: Collagen I expression and secretion in human HDF cells (western blot); format: cell-based; details: relative to 0 = 1.00
Procedure: (§1) Primary human dermal fibroblasts cells (HDF) were purchased from Cascade Biologics (Portland, Oreg., USA) and cultured in medium 106 supplemented with 10% fetal bovine serum (FBS), 100 IU/mL penicillin, 100 μg/mL of streptomycin. The cells from passages 4 to 10 were used for this study. Culture medium was replaced every other day. After confluence, the cells were subcultured following trypsinization. For subcultures cells were harvested after brief treatment with 0.1% trypsin/EDTA solution and seeded at a dilution of 1:10. The cells were seeded at 1×10^5 cells in 6-well culture plate for 24 h before treated with astragalosides or crude extracts, such as butanol fraction and water insoluble fraction of Astragalus membranaceus for the indicated time periods. Control cultures were maintained in medium supplemented with vehicle (dimethyl sulfoxide, DMSO, 0.1%). No growth and differentiation effects of DMSO were observed under these culture conditions.
(§2) The cells were treated with pure compounds such as astragaloside I (AS 1), astragaloside II (AS2), astragaloside III (AS3), astragaloside IV (AS4), astragaloside VI (AS6), isoastragaloside I (isoAS1), isoastragaloside II (isoAS2), and cycloastragenol 6-O-β-D-glucopyranose (AA) at concentrations of 0-10 μM. Alternatively, the cells were also treated with the crude extracts, such as butanol fraction and water insoluble fraction of Astragalus membranaceus at concentrations of 0, 1, 10, and 40 μg/mL. The cells were treated with the indicated compounds or the extracts for 24 h before harvested for analysis of collagen I and III expressed in the whole cell extract or secreted into the culture medium.
(§3) Western blot analysis was carried out on both of cultured medium and cell lysates. The cells were plated on 6-cm dishes at a density of 1×10^6 cells/dish for 24 h prior to treatment with indicated concentrations of astragalus triterpenoids as indicated for another 48 h. The conditioned culture mediums were then centrifuged, 2-fold concentrated and collected for assay of collagens and MMPs secreted into the culture medium. The cells were washed and lysed in 0.2 mL of lysis buffer (1% NP-40, 50 mM Tris-HCl, pH 7.4, 180 mM NaCl, 1 mM EDTA, 1 mM PMSF, 1 mM NaF, 10 mM Na3VO4) for 30 min at 4° C. After centrifuging at 17500 g for 15 min, the supernatants of cell lysate were also collected. Protein concentration of the samples were measured using the bicinchoninic acid (BCA) protein assay kit according to the manufacturer's protocol (Pierce, Rockford, Ill., USA). Equal amount of protein samples of concentrated conditioned medium (100 μg) or cell lysate supernatants (50 μg) were mixed with an appropriate volume of 4×SDS sampling buffer and separated by 8% SDS-PAGE gel. The protein bands separated in the SDS-PAGE gel were blotted onto a polyvinylidene fluoride (PVDF) membrane. The blotted PVDF membrane was washed twice and blocked in freshly prepared Tris-buffered saline (TBS) containing 0.1% Tween-20 and 7% skim milk (TBST) for 2 h at room temperature. The PVDF membrane was then incubated with either antibodies against collagen I and III or the housekeeping protein α-tubulin (Santa Cruz Biotechnology, Santa Cruz, Calif.) for 18 h at 4° C. Horseradish peroxidase-conjugated anti-goat antibody was used as secondary antibody. Signals were visualized by an enhanced chemiluminescence kit (Clonetech, Palo Alto, Calif., USA) followed by exposure to X-ray films.
The collagen expression in the human HDF cells was also determined. […] And Collage I was over-expressed in the cells treated with various doses (1, 10, 40 μg/mL) of the crude extracts, such as butanol fraction and water insoluble fraction of Astragalus membranaceus.

collagen I [2] = test: Collagen I expression in human HaCaT cells (western blot); format: cell-based; details: relative to 0 μM = 1.00
Procedure: The Spontaneously transformed human keratinocyte cell lines HaCaT cells were grown at 37° C. in a humidified incubator under 5% CO2 and 95% air in culture medium such as Dulbecco Modified Eagle Medium (DMEM) supplemented with 10% Fetal Bovine Serum (FBS), 100 IU/mL penicillin, 100 μg/mL of streptomycin, 2 mM sodium pyruvate and 1% Non-Essential Amino Acids (NEAA). The culture medium was replaced every other day. After confluence, the cells were subcultured following trypsinization. For subcultures cells were harvested after brief treatment with 0.1% trypsin/ethylenediaminetetraacetic acid (EDTA) solution and seeded at a dilution of 1:10. Cells between passages 12 and 45 were used for studies. The cells were seeded and incubated for 24 h before treated with the astragalosides for 24 h. Control cultures were maintained in medium supplemented with vehicle (dimethyl sulfoxide (DMSO) 0.1%). No growth and differentiation effects of DMSO were observed under these culture conditions.
as §2, §3
Results shown represent the quantitated data from western blot analysis. […] The collagen I was also over-expressed in the human HaCaT cells treated with 40 μg/mL of astragaloside extract.

collagen III = test: Collagen III expression and secretion in human HDF cells (western blot); format: cell-based; details: relative to 0 = 1.00
Procedure: as §1, §2, §3

MMP-1 [3] = test: Quantitative analysis of MMP-1 transcripts in HDF cells (qRT-PCR); format: cell-based, human; details: 0.1 μM, MMP-1 mRNA relative to 0 = 1.00
Procedure: Relative levels of MMP-1 expression in HDF cells were determined by qRT-PCR. Preparation of total RNA and cDNA were carried out as described in previous sections. qRT-PCR was performed using the Applied Biosystem 7300 system and pre-developed Taqman Gene Expression Assays (Applied Biosystems, Foster City, Calif., USA). The reaction was performed as described in previous sections except that primer mix for human MMP-1 (assay ID HS00233958_m1, Applied Biosystems) and GAPDH (assay ID Hs99999905_m1, Applied Biosystems) were used.
Results shown in Tables 6A and 6B represent the quantitated data from zymography analysis of MMP-2 protein in HaCaT cells and qRT-PCR for MMP-1 in HDF cells. The concentrations used were 0, 0.01. 0.1, 1 μM (if not indicated otherwise) for pure compounds; and were 0, 1, 10, 40 μg/mL for crude extract (if not indicated otherwise). The cells were treated with the indicated compounds for 24 h before harvested for analysis of Pro-MMP-2 or activated MMP-2 in whole cell extract. Fifty micrograms of the cell extract samples were used for electrophoresis.

MMP-1 [4] = test: UV-B-induced MMP-1 expression in human HDF cells (western blot, FIG. 1); format: cell-based; details: 50 mJ/cm^2 UV-B, positive control (FIG. 1 lane 3)
Procedure: To characterize the effects of astragalosides on the expression level of MMPs in human cells, HDF or HaCaT cells were first treated with or without various concentrations of astragalosides for 24 h. The cells were washed with phosphate-buffered saline (PBS) and irradiated with 10-100 mJ/cm^2 of UV-B (312 nm) for HDF-1 and HaCaT cells, respectively, using the UV light irradiator (UVItec unlimited, Cambridge, England). The cells were then washed and incubated with serum free medium for 24 h before harvested for analysis. The effect of astragalosides on MMPs levels was analyzed by western blot and the activity of MMPs was analyzed by zymography. All trans retinoic acid (atRA) was used as a positive control to suppress the UV-B-induced MMPs activation and expression.
Human HDF cells were treated with the indicated concentrations of water insoluble fraction of Astragalus membranaceus for 24 h. The cells were then irradiated with 50 mJ/cm^2 of UV-B. After 24 h, the cells were harvested for western blot analysis. […] Thus, the water insoluble fraction of Astragalus membranaceus is a potential agent for the prevention and treatment of skin aging as a result of UV irradiation.

CC(C)(O)C1CC[C@](C)(C2[C@@H](O)C[C@@]3(C)C4C[C@H](OC5OC(CO)C(O)C(O)C5O)C5C(C)(C)[C@@H](O)CCC56CC46CC[C@]23C)O1 (stereo partly drawn) [AA, cycloastragenol 6-O-β-D-glucopyranose]
Uptake rate (glucosamine) (HaCaT cells; 48 h treatment): 0.9445 ± 0.0823 CPM/μg protein | Percentage (%) of control glucosamine uptake (HaCaT cells; relative to control): 114.59% | Collagen I in cell (collagen I [1]; 0.01 μM): 1.04 | Collagen I in medium (collagen I [1]; 0.01 μM): 0.97 | Collagen I in cell (collagen I [1]; 0.1 μM): 1.85 | Collagen I in medium (collagen I [1]; 0.1 μM): 0.95 | Collagen I in cell (collagen I [1]; 1 μM): 1.17 | Collagen I in medium (collagen I [1]; 1 μM): 1.52 | Collagen I in cell (collagen I [2]; 0.01 μM): 2.57 | Collagen I in cell (collagen I [2]; 0.1 μM): 3.34 | Collagen I in cell (collagen I [2]; 1 μM): 3.47 | Collagen III in medium (collagen III; 0.01 μM): 1.03 | Collagen III in medium (collagen III; 0.1 μM): 1.62 | Collagen III in medium (collagen III; 1 μM): 1.34 | MMP-1 Q-PCR (MMP-1 [3]): 0.76

CC1=C(/C=C/C(C)=C/C=C/C(C)=C/C(=O)O)C(C)(C)CCC1 [atRA, All trans retinoic acid]
UV-mediated induction of MMP-1 expression (MMP-1 [4]): blocked
